Source: patent US9321743B2, “Compositions and methods of inhibiting N-acylethanolamine-hydrolyzing acid amidase” (The Regents of the University of California, priority 2007, dated 2016)

What was measured:
[1] = biological target: recombinant NAAA (Rattus norvegicus (Rat), UniProt Q5KTC7); test: NAAA assay; assay type: biochemical; settings: read-out: IC50 of NAAA inhibition
Method: Recombinant NAAA or native rat lung NAAA was incubated at 37° C. for 30 min in 0.2 ml of sodium hydrogen phosphate buffer (50 mM, pH 5.0) containing 0.1% Triton X-100, 3 mM dithiothreitol (DTT) and […] heptadecenoylethanolamide as substrate. The reaction was terminated by the addition of 0.2 ml cold methanol containing […] of heptadecanoic acid (HDA, NuChek Prep, Elysian, Minn.). Samples were analyzed by LC/MS (liquid chromatography/mass spectrometry). Heptadecanoic acid was eluted on an XDB Eclipse C18 column isocratically at 2.2 ml/min for 1 min with a solvent mixture of 95% methanol and 5% water, both containing 0.25% acetic acid and 5 mM ammonium acetate. The column temperature was 50° C. ESI was in the negative mode, capillary voltage was 4 kV, and fragmentor voltage was 100 V. N2 was used as drying gas at a flow rate of 13 liters/min and a temperature of 350° C. Nebulizer pressure was set at 60 psi. [M-H]-was monitored in SIM mode using heptadecanoic acid as internal standard. Calibration curves were generated using commercial heptadecenoic acid (Nu-Chek Prep, m/z=267).

[2] = test system: carrageenan-induced inflammation; test: mouse carrageenan model (carrageenan-soaked polyethylene sponge implanted under the dorsal skin); assay type: in vivo
Text: The contribution of endogenous PEA to inflammatory processes remains largely undefined. […] The inventors have previously shown that the proinflammatory phorbol ester, 12-O-tetradecanoylphorbol-13-acetate (TPA), decreases dermal PEA levels following skin inflammation. These findings raised the possibility that reduced PEA levels during inflammation may allow for the progression of the inflammatory process. To further explore this idea, the inventors evaluated the effects of carrageenan-induced inflammation on PEA levels in the mouse. Polyethylene sponges injected with vehicle (10% DMSO in saline) or carrageenan (1%) were surgically implanted under the dorsal skin of mice. After 3 days, the mice were sacrificed and the sponges were removed and analyzed for inflammatory cell infiltration and cellular PEA content. In carrageenan-treated animals the number of infiltrating cells (primarily neutrophils) increased by approximately 3-fold as can be taken from FIG. 2. Here, surgical implantation of vehicle (v) or carrageenan (c) soaked sponges under the dorsal skin of Swiss mice for 3 days (A) increased the number of infiltrating neutrophils and (B) decreased the levels of endogenous cellular PEA. (C) Time course of the effects of vehicle (open symbols) or carrageen (closed symbols) on PEA levels **P<0.01 or ***P<0.001 vs. V, t-test or ANOVA, followed by Dunnett's post-hoc as appropriate (n=6).
As a first step in determining the role of endogenous PEA in inflammation, the inventors examined the effects of local application of PEA on inflammatory responses. Polyethylene sponges injected with vehicle or carrageenan (1%) and either vehicle (10% DMSO in saline) or various doses of PEA (0.1-50 μg) were surgically implanted under the dorsal skin of mice. After 3 days, the mice were killed and the sponges were removed and analyzed for cell infiltration. […] Here panels (A-B) depict the effect of vehicle (open bars), carrageenan (filled bars) or PEA (0.1-50 μg) in Swiss mice, black bars; PEA (50 μg in PPAR-α−/− mice), scored as the number of infiltrating inflammatory cells into a polyethylene sponge (size) injected with vehicle, carrageenan (1%) or PEA, implanted under the dorsal skin of (A) Swiss mice or (B) wildtype C57BL6 mice (+/+) or PPAR-α/− mice for 3 days. **P<0.01 or ***P<0.001 vs. V, ## P<0.01 vs. carrageenan control. ANOVA, followed by Tukey's or Dunnett's post-hoc as appropriate (n=6). Thus, it should be appreciated that peripheral inflammation is associated with decreased PEA synthesis in infiltrating cells, and that restoring PEA levels by exogenous PEA administration reduces inflammatory responses.
Polyethylene sponges (1 cm^3) were injected with either vehicle (100 μl of water:DMSO (9:1), V, open bars), carrageenan (1%, filled bars), URB597 (30 μg), and URB783 (30 μg) as indicated. **P<0.01 or ***P<0.001 vs. V, ## P<0.01 vs. carrageenan control. ANOVA, followed by Tukey's or Dunnett's post-hoc as appropriate (n=5-7).

[3] = test system: spinal cord injury; test: spinal cord injury (SCI) model, extradural clip compression; assay type: in vivo, mouse; settings: spinal cord tissue 24 hours after SCI, local administration after SCI
Method: In the spinal cord injury (SCI) model, extradural compression of a section of the spinal cord exposed via a four-level T5-T8 aminectomy, caused a substantial increase in iNOS expression in the inflammatory cells as well as in nuclei of […] in the white and gray matter of the spinal cord tissues collected from mice 24 hours after SCI. No iNOS staining was detected in the spinal cord obtained from sham mice. […] A typical experimental protocol is described below.
Mice were randomized into 4 groups (n=40 animals/group). Sham animals were subjected to the surgical procedure except that the aneurysm clip was not applied and treated locally at the spinal cord T5-T8 level with vehicle (saline) or 3 (30 μg/mouse) 1 h and 6 h after surgical procedure. […]
Immunohistochemical localization of PAR, nitrotyrosine, FAS-ligand, Bax, Bcl-2 and iNOS. Twenty-four hours after SCI, nitrotyrosine, a specific marker of nitrosative stress, was measured by immunohistochemical analysis in the spinal cord sections to determine the localization of “peroxynitrite formation” and/or other nitrogen derivatives produced during SCI. […] Specific labeling was detected with a biotin-conjugated goat anti-rabbit IgG and avidin-biotin peroxidase complex ([…]). […]

[4] = 30 μg in sponge, 3 days, Swiss mice

Sequence of recombinant NAAA (Q5KTC7 34-362): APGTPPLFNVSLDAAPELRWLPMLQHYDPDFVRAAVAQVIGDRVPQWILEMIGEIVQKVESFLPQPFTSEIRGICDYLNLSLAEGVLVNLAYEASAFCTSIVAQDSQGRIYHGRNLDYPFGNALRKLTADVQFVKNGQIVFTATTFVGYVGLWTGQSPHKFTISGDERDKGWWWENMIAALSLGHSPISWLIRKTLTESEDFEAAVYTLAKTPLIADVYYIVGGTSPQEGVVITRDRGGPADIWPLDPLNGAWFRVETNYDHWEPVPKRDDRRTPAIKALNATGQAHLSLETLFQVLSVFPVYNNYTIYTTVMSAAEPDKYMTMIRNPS

SMILES: O=C(N[C@H]1COC1=O)c1ccc(-c2ccccc2)cc1 [URB894, (S)—N-(2-oxooxetan-3-yl)biphenyl-4-carboxamide]
- IC50 [1]: 115 ± 13 nM

SMILES: CCCCCCCCCCCCCCCC(=O)NCCO [PEA, N-palmitoylethanolamine, reference compound]
- number of infiltrating cells and edema in PPAR-α-null animals ([2]; PEA 50 μg, PPAR-α-null mice): had no effect
- number of infiltrating cells ([2]; PEA 0.1-50 μg in sponge, 3 days, wild-type mice): dose-dependently reduced
- edema ([2]; PEA in sponge, wild-type mice, data not shown): dose-dependently reduced

SMILES: O=C(CCc1ccccc1)N[C@H]1COC1=O [URB783, (S)—N-(2-oxooxetan-3-yl)-3-phenylpropionamide]
- IC50 [1]: 420 ± 20 nM
- endogenous PEA levels [2, 4]: restored PEA to basal levels
- number of infiltrating cells [2, 4]: significantly reduced
- anti-inflammatory effects in PPAR-α null mice ([2]; PPAR-α null mice): absent
- exudates volume ([2]; in sponge, data not shown): significantly reduced
- expression of iNOS [3]: significant reduction
- other markers of inflammation and cell apoptosis (PAR, nitrotyrosine, Fas-ligand, Bax, Bcl-2, TUNEL) [3]: significant reduction

SMILES: NC(=O)c1cccc(-c2cccc(OC(=O)NC3CCCCC3)c2)c1 [URB597, reference compound]
- anti-inflammatory effect ([2]; 30 μg in sponge, 3 days): no anti-inflammatory effect
